Measured values taken from patent publication US20230371507A1 (priority 2020, published 2023).
Like-named read-outs stand apart in the source and are kept apart here.

Legend:
B. cinerea [1] = test: bio-assay in liquid medium (PDB) with B. cinerea as indicator strain; format: cell-based, Botrytis cinerea; details: at both a pH of 3 and a pH of 5 (FIG. 1)
Procedure: 2-octyl-2 pentenedioic acid was also evaluated for antifungal activity using bio-assay in liquid medium using B. cinerea as an indicator strain. The bio-assay was carried out in PDB liquid medium.
The bio-assay for determination of antifungal activity was set-up based on the procedure as described in Stammler and Speakman, 2006. Microtiter Method to Test the Sensitivity of Botrytis cinerea to Boscalid. Journal of Phytopathology, 154, 7-8, p 508-510. This bio-assay is based on dilution of the antimicrobial agent and determination of growth inhibition of a sensitive indicator strain, in this case Botrytis cinerea. The bio-assay was performed in 96-well microtiter plates and included micro-dilutions of the antimicrobial agent in a liquid growth medium, where each well was inoculated with a standardized number of fungal spores of the indicator strain. After incubation (no agitation, 18° C. in darkness for 5 days), the results were obtained by measurement of fungal growth by photometer at 405 nm and the values were corrected by comparison with the blanks (cultures without the antimicrobial compound). The ED (effective dose) values are compared with reference standard fungicides.

P. infestans = format: cell-based, Phytophthora infestans
[2] = tested on: Puccinia triticina strain BT06M215; test: in planta intensity of infection of wheat leaves by Puccinia triticina; format: in vivo
Description: This experiment illustrates the effect of the crude extract (YE) of P. aphidis, synthetic (E)-2-octyl-2-pentenedioic acid (PA), extracted 2-octyl-2 pentenedioic acid from Pseudozyma aphidis in methanol, Rhapsody® (Bacillus subtilis) and Amistart (azoxystrobin) at 0.1% on the intensity of infection of wheat leaf fragments by uredospores of Puccinia triticina strain BT06M215. Rhapsody® (Bacillus subtilis) and Amistar® (azoxystrobin) are commercially available fungicidal solutions. P. titicina strain BT06M215 was isolated from untreated wheat leaves in France.
All fungicidal products were prepared in a volume of water corresponding to 200 L/ha. […]
For each experimental condition tested, 18 replicates of one wheat leaf were tested. […] Disease assessment (intensity of infection) on the first leaf of each wheat plantlets is monitored at 8 to 15 days post inoculation.

[3] = tested on: Zymoseptoria tritici strain Mg Tri-R6; format: in vivo; details: wheat; in methanol, applied at 100 gr/ha; Proline applied at 0.8 L/ha (FIGS. 7a, 7b)
B. cinerea [4] = test: bio-assay with tomato leaves against B. cinerea; format: in vivo, Botrytis cinerea
Description: The untreated control (#2, only 70% ethanol) was taken as a reference for the maximal infection rate.

[5] = tested on: Phytophthora infestans strain Pi61; format: in vivo; details: in methanol, applied at 150 g/ha; Shirlan applied at 200 g/ha (FIGS. 10a, 10b)

In the case of `CCCCCCCCC(=CCC(=O)O)C(=O)O` [2-octyl-2 pentenedioic acid], the “efficacy against B. cinerea” value (B. cinerea [1]) is reported as “excellent efficacy”, the ED90 (P. infestans; pH 4.6, V8 juice liquid media) is reported as 37 ppm and the ED90 (P. infestans; pH 6.2, V8 juice liquid media) is reported as 41 ppm. For the same compound, the ED90 (P. infestans; pH 8.0, V8 juice liquid media) was “Not detected”, the “efficacy against Puccinia triticina compared to Amistar” value ([2]; in methanol, applied at 100 g/ha, Amistar applied at 1 L/ha (FIGS. 4a, 4b)) was “comparable efficacy” and the “efficacy against Zymoseptoria tritici compared to Proline” value [3] was “comparable efficacy”.

With `CC(=O)O` [Sample 3, Acetic acid] the “effect on B. cinerea infection (in words)” value (B. cinerea [4]) was “inhibited B. cinerea infection”.

`CCCCCCCC/C(=C\CC(=O)O)C(=O)O` [2-octyl-2 pentenedioic acid (synthetic), (E)-2-octyl-2-pentenedioic acid] was tested, and the ED90 (P. infestans; pH 4.6, V8 juice liquid media) was 41 ppm, the ED90 (P. infestans; pH 6.2, V8 juice liquid media) was 42 ppm and the ED90 (P. infestans; pH 8.0, V8 juice liquid media) was “Not detected”. The “efficacy against Puccinia triticina compared to Rhapsody” value ([2]; Rhapsody applied at 2.0 L/ha (FIGS. 3a, 3b)) was “comparable efficacy” and the “efficacy against Phytophthora infestans compared to Shirlan (fluazinam)” value [5] was “comparable efficacy”.
